# Data taken from ChEMBL document CHEMBL5512659, “Structure optimizing of flavonoids against both MRSA and VRE” (Eur J Med Chem, 2024).
# Key:
# Staphylococcus aureus = assay: Antibacterial activity against methicillin resistant Staphylococcus aureus clinical isolate 003; type: functional
# Enterococcus faecalis = assay: Antibacterial activity against multidrug resistant Enterococcus faecalis ATCC 51299; type: functional
Structure (SMILES),MIC (Staphylococcus aureus) [µg/mL],MIC (Enterococcus faecalis) [µg/mL]
CC(C)=CCCc1c(-c2ccc(O)cc2O)oc2cc(O)cc(O)c2c1=O,32,32
COc1cc(O)c2c(=O)c(CCC/C=C(\C)CCC=C(C)C)c(-c3ccc(O)cc3O)oc2c1,16,32
CC(C)=CCc1c(O)ccc(C(=O)[C@@H]2[C@@H](c3ccc(O)cc3O)CC(C)=C[C@H]2c2c(O)cc(O)c3c(=O)c(CC=C(C)C)c(-c4ccc(O)cc4O)oc23)c1O,2.5,5
COc1ccc(-c2oc3cc(OC)cc(OC)c3c(=O)c2CCC/C=C(\C)CCC=C(C)C)c(OC)c1,> 64,> 64
CC(C)=CCc1c(-c2ccc(O)cc2O)oc2c3c(cc(O)c2c1=O)OC(C)(C)C=C3 [MORUSIN],5,5
CCCc1c(-c2ccc(O)cc2O)oc2cc(OC)cc(O)c2c1=O,32,64
CCCCc1c(-c2ccc(O)cc2O)oc2cc(O)cc(O)c2c1=O,32,32
CCc1c(-c2ccc(OC)cc2OC)oc2cc(OC)cc(OC)c2c1=O,> 64,> 64
CCCCc1c(-c2ccc(OC)cc2OC)oc2cc(OC)cc(OC)c2c1=O,> 64,> 64
CCc1c(-c2ccc(O)cc2O)oc2cc(OC)cc(O)c2c1=O,> 64,64
CCCCCc1c(-c2ccc(O)cc2O)oc2cc(OC)cc(O)c2c1=O,8,16
CCCCCCCCCCc1c(-c2ccc(OC)cc2OC)oc2cc(OC)cc(OC)c2c1=O,> 64,> 64
CCCCCCCCCCCCc1c(-c2ccc(O)cc2O)oc2cc(O)cc(O)c2c1=O,32,64
CCCCCCCCCCCCCCCCc1c(-c2ccc(OC)cc2OC)oc2cc(OC)cc(OC)c2c1=O,> 64,> 64
COc1ccc(-c2oc3cc(OC)cc(OC)c3c(=O)c2CCC=C(C)C)c(OC)c1,> 64,> 64
CC(C)=CCc1c(-c2ccc(O)cc2O)oc2c(CC=C(C)C)c(O)cc(O)c2c1=O [KUWANON C],5,10

Structure (SMILES),MIC (Staphylococcus aureus) [µg/mL],MIC (Enterococcus faecalis) [µg/mL]
CCCCCCCCCCc1c(-c2ccc(O)cc2O)oc2cc(OC)cc(O)c2c1=O,16,16
COc1ccc(-c2cc(=O)c3c(OC)cc(OC)cc3o2)c(OC)c1,> 64,> 64
CCCc1c(-c2ccc(OC)cc2OC)oc2cc(OC)cc(OC)c2c1=O,> 64,> 64
CC(C)=CCc1c(-c2ccc(O)cc2O)oc2c([C@H]3C=C(C)C[C@@H](c4ccc(O)cc4O)[C@@H]3C(=O)c3ccc(O)cc3O)c(O)cc(O)c2c1=O [KUMANON G],5,5
CCCCCCCCCCc1c(-c2ccc(O)cc2O)oc2cc(O)cc(O)c2c1=O,16,32
CC(C)=CCCC1=C[C@@H](c2c(O)cc3oc(-c4ccc(O)cc4O)cc(=O)c3c2O)[C@H](C(=O)c2ccc(O)cc2O)[C@@H](c2ccc(O)cc2O)C1,5,10
COc1ccc(-c2oc3cc(OC)cc(OC)c3c(=O)c2CCCCc2ccccc2)c(OC)c1,> 64,> 64
CCCCCCCCCCCCc1c(-c2ccc(O)cc2O)oc2cc(OC)cc(O)c2c1=O,16,32
CCCCCc1c(-c2ccc(OC)cc2OC)oc2cc(OC)cc(OC)c2c1=O,> 64,> 64
O=c1cc(-c2ccc(O)cc2O)oc2cc(O)cc(O)c12 [NORARTOCARPETIN],> 64,> 64
C=CCc1c(-c2ccc(O)cc2O)oc2cc(OC)cc(O)c2c1=O,32,64
CCCCCCCCc1c(-c2ccc(O)cc2O)oc2cc(O)cc(O)c2c1=O,16,16
CCc1c(-c2ccc(O)cc2O)oc2cc(O)cc(O)c2c1=O,> 64,> 64
O=c1c(CCCCc2ccccc2)c(-c2ccc(O)cc2O)oc2cc(O)cc(O)c12,16,32
COc1cc(O)c2c(=O)cc(-c3ccc(O)cc3O)oc2c1 [ARTOCARPETIN],> 64,> 64
